The term IC50 denotes the concentration that gives 50% inhibition. A low value points to inhibition by little substance.

Holding throughout (format): functional, cell-based
The test system of one test is ASPC1. Briefly: Cytotoxicity against human AsPC1 cells after 72 hrs by MTT assay. The note with it: ASPC1, 72 h.
The test system of another test is DLD-1. Put plainly: Cytotoxicity against human DLD1 cells after 72 hrs by MTT assay. Particulars: DLD-1, 72 h. In general terms: Tetrazolium dyes change colour on reduction, which living cells bring about.
The next test concerns PANC-1. Put plainly: Cytotoxicity against human PANC1 cells after 72 hrs by MTT assay. The note with it: PANC-1, 72 h.
A further test relates to NCI. Briefly: Cytotoxicity against human Taxol-adriamycin-resistant NCI cells after 72 hrs by MTT assay.

Regarding `C=C/C=C\[C@H](C)[C@@H]1OC(=O)/C=C\C=C\[C@@H](C)[C@@H](O)C[C@H](O)/C=C\[C@H](C)[C@H](O)[C@@H](C)CCCC[C@@H](O)[C@@H]1C`, the IC50 in the test on ASPC1 worked out at 170 nM; in the test with DLD-1 it was 85 nM; in the test on PANC-1 it was 130 nM; in the test with NCI, 1500 nM.
For `C=C/C=C\[C@H](C)[C@@H]1OC(=O)/C=C\C=C\[C@@H](C)[C@@H](O)C[C@@H](O)/C=C\[C@H](C)[C@H](O)[C@@H](C)C[C@@H](C)CC[C@@H](O)[C@@H]1C`, the IC50 with ASPC1 was 410 nM; in the test on DLD-1, 150 nM; in the test on PANC-1 it was 240 nM; in the test on NCI it was 1100 nM.
The matching figures for `C=C/C=C\[C@H](C)[C@@H]1OC(=O)/C=C\C=C\[C@@H](C)[C@@H](O)C[C@@H](O)/C=C\[C@H](C)[C@H](O)[C@@H](C)CCCC[C@@H](O)[C@@H]1C`: 2100 nM, 790 nM, 1500 nM and 2100 nM.
Regarding `C=C/C=C\[C@H](C)[C@@H]1OC(=O)/C=C\C=C\[C@@H](C)[C@@H](O)C[C@H](OC)/C=C\[C@H](C)[C@H](O)[C@@H](C)C[C@@H](C)CC[C@@H](O)[C@@H]1C`, the IC50 in the test with ASPC1 was determined as 31 nM; with DLD-1, 2.4 nM; in the test with PANC-1, 9.7 nM; in the test on NCI, 8.2 nM.
`C=C/C=C\[C@H](C)[C@@H]1OC(=O)/C=C\C=C\[C@@H](C)[C@@H](O)C[C@H](O)/C=C\[C@H](C)[C@H](O)[C@@H](C)C[C@@H](C)CC[C@@H](O)[C@@H]1C` [DICTYOSTATIN]: in the test on NCI, inhibition was half-maximal at 9.8 nM (IC50).
On the same count and under the same terms, next, `C=C/C=C\[C@H](C)[C@H](OC(N)=O)[C@@H](C)[C@H](O)[C@@H](C)C/C(C)=C\[C@H](C)[C@@H](O)[C@@H](C)/C=C\[C@@H](O)C[C@@H]1OC(=O)[C@H](C)[C@@H](O)[C@H]1C` [DISERMOLIDE]: 160 nM.
